Reference: ChEMBL document CHEMBL4665629, “An optimised series of substituted N-phenylpyrrolamides as DNA gyrase B inhibitors” (Eur J Med Chem, 2019)
In brackets after ≈: the same amount, converted by molar mass.

Columns and labels:
[1] = Inhibition of Escherichia coli DNA GyraseB incubated for 10 mins followed by ATP substrate addition by coupled spectrophotometric analysis
Escherichia coli [2] = assay: Antibacterial activity against Escherichia coli assessed as bacterial growth inhibition incubated for 18 to 24 hrs by alamar blue assay; format: functional; conditions: time hrs 18-24
Staphylococcus aureus [3] = assay: Antibacterial activity against Staphylococcus aureus assessed as bacterial growth inhibition incubated for 18 to 24 hrs by alamar blue assay; format: functional; conditions: time hrs 18-24
Pseudomonas aeruginosa = assay: Antibacterial activity against Pseudomonas aeruginosa ATCC 27853 assessed as bacterial growth inhibition at 50 uM incubated for 24 hrs by CLSI protocol based broth microdilution assay relative to control; format: functional
Escherichia coli [4] = assay: Antibacterial activity against efflux pump d effect ive Escherichia coli JW5503 harbouring tolC mutant assessed as bacterial growth inhibition at 50 uM incubated for 24 hrs by CLSI protocol based broth microdilution assay relative to control; format: functional
Staphylococcus aureus [5] = assay: Antibacterial activity against Staphylococcus aureus ATCC 29213 assessed as minimum inhibitory concentration required for >=90% inhibition of bacterial growth by CLSI protocol based broth microdilution assay; format: functional
Enterococcus faecalis [6] = assay: Antibacterial activity against Enterococcus faecalis ATCC 29212 assessed as bacterial growth inhibition at 50 uM incubated for 24 hrs by CLSI protocol based broth microdilution assay relative to control; format: functional
Escherichia coli [7] = assay: Antibacterial activity against outer membrane impaired Escherichia coli JD17464 harboring lpxC mutant assessed as bacterial growth inhibition at 50 uM incubated for 24 hrs by CLSI protocol based broth microdilution assay relative to control; format: functional
Klebsiella pneumoniae [8] = assay: Antibacterial activity against Klebsiella pneumoniae ATCC 700603 assessed as bacterial growth inhibition at 50 uM incubated for 24 hrs by CLSI protocol based broth microdilution assay relative to control; format: functional
Escherichia coli [9] = assay: Antibacterial activity against Escherichia coli ATCC 25922 assessed as bacterial growth inhibition at 50 uM incubated for 24 hrs by CLSI protocol based broth microdilution assay relative to control; format: functional
Escherichia coli [10] = assay: Antibacterial activity against efflux pump d effect ive Escherichia coli JW5503 harbouring tolC mutant assessed as minimum inhibitory concentration required for >=90% inhibition of bacterial growth by CLSI protocol based broth microdilution assay; format: functional
Enterococcus faecalis [11] = assay: Antibacterial activity against Enterococcus faecalis ATCC 29212 assessed as minimum inhibitory concentration required for >=90% inhibition of bacterial growth by CLSI protocol based broth microdilution assay; format: functional
Acinetobacter baumannii [12] = assay: Antibacterial activity against Acinetobacter baumannii ATCC 19606 assessed as bacterial growth inhibition at 50 uM incubated for 24 hrs by CLSI protocol based broth microdilution assay relative to control; format: functional; conditions: ATCC 19606 = CIP 70.34 = JCM 6841
DNA gyrase [13] = target: T1, DNA gyrase (Escherichia coli, UniProt P0AES4+P0AES6); assay: Inhibition of Escherichia coli DNA gyrase using biotinylated oligonucleotide as substrate incubated for 30 mins in presence of ATP by fluorescence-based microplate reader assay; format: protein-complex assay
Klebsiella aerogenes [14] = assay: Antibacterial activity against Enterobacter aerogenes ATCC 13408 assessed as bacterial growth inhibition at 50 uM incubated for 24 hrs by CLSI protocol based broth microdilution assay relative to control; format: functional
Staphylococcus aureus [15] = assay: Antibacterial activity against Staphylococcus aureus ATCC 29213 assessed as bacterial growth inhibition at 50 uM incubated for 24 hrs by CLSI protocol based broth microdilution assay relative to control; format: functional
[16] = Inhibition of Escherichia coli DNA topoisomerase 4 assessed as residual activity at 1 uM using biotinylated oligonucleotide as substrate incubated for 30 mins in presence of ATP by fluorescence-based microplate reader assay relative to control
Enterococcus faecium = assay: Antibacterial activity against Enterococcus faecium ATCC 35667 assessed as bacterial growth inhibition at 50 uM incubated for 24 hrs by CLSI protocol based broth microdilution assay relative to control; format: functional
[17] = target: Topoisomerase IV (Staphylococcus aureus) (UniProt P0C1U9+P0C1S7); assay: Inhibition of Staphylococcus aureus DNA topoisomerase 4 assessed as residual activity at 1 uM using biotinylated oligonucleotide as substrate incubated for 30 mins in presence of ATP by fluorescence-based microplate reader assay relative to control; format: protein-complex assay
[18] = target: DNA gyrase (Staphylococcus aureus) (UniProt P0A0K8+P20831); assay: Inhibition of Staphylococcus aureus DNA gyrase assessed as residual activity at 1 uM using biotinylated oligonucleotide as substrate incubated for 30 mins in presence of ATP by fluorescence-based microplate reader assay relative to control; format: protein-complex assay
DNA gyrase (Staphylococcus aureus), sequence (P0A0K8 2-644 limits assumed): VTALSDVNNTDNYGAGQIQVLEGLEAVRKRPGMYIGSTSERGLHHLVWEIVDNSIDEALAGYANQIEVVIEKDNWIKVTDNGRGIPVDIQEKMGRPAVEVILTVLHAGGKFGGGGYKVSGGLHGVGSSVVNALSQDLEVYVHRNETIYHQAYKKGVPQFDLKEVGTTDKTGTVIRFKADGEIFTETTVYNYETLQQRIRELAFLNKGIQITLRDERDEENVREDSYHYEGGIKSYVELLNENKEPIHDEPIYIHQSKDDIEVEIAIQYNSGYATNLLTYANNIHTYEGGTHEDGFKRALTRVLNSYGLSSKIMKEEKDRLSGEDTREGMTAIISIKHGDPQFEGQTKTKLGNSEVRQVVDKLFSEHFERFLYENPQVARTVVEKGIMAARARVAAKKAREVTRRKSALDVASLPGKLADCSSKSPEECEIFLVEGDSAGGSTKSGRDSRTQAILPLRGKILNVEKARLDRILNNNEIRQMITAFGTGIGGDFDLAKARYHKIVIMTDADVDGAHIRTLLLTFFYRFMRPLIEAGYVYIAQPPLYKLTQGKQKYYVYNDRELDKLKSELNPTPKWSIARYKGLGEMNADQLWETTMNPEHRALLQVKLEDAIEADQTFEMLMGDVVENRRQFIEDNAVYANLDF
DNA gyrase (Staphylococcus aureus), sequence (P20831 whole entry partner): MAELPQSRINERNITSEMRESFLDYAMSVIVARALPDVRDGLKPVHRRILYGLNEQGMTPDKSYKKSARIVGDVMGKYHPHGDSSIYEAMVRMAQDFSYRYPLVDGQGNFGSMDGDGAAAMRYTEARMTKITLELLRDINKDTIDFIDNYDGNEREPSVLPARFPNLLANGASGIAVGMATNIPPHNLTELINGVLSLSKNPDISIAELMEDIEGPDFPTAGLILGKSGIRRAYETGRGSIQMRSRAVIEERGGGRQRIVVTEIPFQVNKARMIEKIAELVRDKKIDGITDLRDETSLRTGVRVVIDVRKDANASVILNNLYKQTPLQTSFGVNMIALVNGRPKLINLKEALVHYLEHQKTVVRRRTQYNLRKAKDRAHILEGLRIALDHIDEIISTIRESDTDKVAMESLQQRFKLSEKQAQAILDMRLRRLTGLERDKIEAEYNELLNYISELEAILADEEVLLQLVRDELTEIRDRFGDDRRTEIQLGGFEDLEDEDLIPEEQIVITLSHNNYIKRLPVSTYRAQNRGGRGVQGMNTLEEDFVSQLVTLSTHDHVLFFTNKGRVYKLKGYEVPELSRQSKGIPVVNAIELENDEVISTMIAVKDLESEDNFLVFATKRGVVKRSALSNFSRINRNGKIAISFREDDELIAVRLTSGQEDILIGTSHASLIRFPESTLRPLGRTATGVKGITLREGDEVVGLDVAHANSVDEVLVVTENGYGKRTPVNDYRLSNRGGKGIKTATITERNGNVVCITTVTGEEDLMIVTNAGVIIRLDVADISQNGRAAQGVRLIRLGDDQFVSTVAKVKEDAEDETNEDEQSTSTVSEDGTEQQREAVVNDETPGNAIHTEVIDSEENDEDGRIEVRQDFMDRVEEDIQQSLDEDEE

Escherichia coli [19] = assay: Antibacterial activity against Escherichia coli MG1655 harboring […]/D87N and ParC S80I/E84G mutants assessed as minimum inhibitory concentration required for >=90% inhibition of bacterial growth in presence of 50 ug/ml phenylalanine-arginine beta-naphthylamide; format: functional
Klebsiella aerogenes [20] = assay: microbe, parasite or virus in culture; conditions: ATCC 13408
Acinetobacter baumannii [21] = assay: microbe, parasite or virus in culture; conditions: ATCC 19606 = CIP 70.34 = JCM 6841
Escherichia coli [22] = assay: Antibacterial activity against Escherichia coli MG1655 harboring […] mutant assessed as minimum inhibitory concentration required for >=90% inhibition of bacterial growth in presence of 50 ug/ml phenylalanine-arginine beta-naphthylamide; format: functional
Klebsiella pneumoniae [23] = assay: microbe, parasite or virus in culture; conditions: 700603
Escherichia coli [24] = assay: Antibacterial activity against Escherichia coli MG1655 harboring […]/D87N mutant assessed as minimum inhibitory concentration required for >=90% inhibition of bacterial growth in presence of 50 ug/ml phenylalanine-arginine beta-naphthylamide; format: functional
Escherichia coli [25] = assay: Antibacterial activity against Escherichia coli MG1655 harboring GyrB R136C mutant assessed as minimum inhibitory concentration required for >=90% inhibition of bacterial growth in presence of 50 ug/ml phenylalanine-arginine beta-naphthylamide; format: functional
Escherichia coli [26] = assay: Antibacterial activity against Escherichia coli MG1655 harboring […]/D87N and ParC S80I mutants assessed as minimum inhibitory concentration required for >=90% inhibition of bacterial growth in presence of 50 ug/ml phenylalanine-arginine beta-naphthylamide; format: functional
[27] = Inhibition of Escherichia coli DNA topoisomerase 4
Enterococcus faecalis [28] = assay: Antibacterial activity against Enterococcus faecalis ATCC 29212 assessed as bacterial growth inhibition by CLSI protocol based broth dilution or agar dilution method; format: functional
DNA gyrase [29] = target: T1, DNA gyrase; assay: Inhibition of Escherichia coli DNA gyrase (A2B2 tetramer) incubated for 60 mins in presence of ATP by malachite green reagent based spectrophotometric analysis; format: protein-complex assay

CNc1cc(F)cc2c1[nH]c1nc(Oc3cnc(C)nc3)nc(N3C[C@@H]4[C@H](N)C[C@]4(C)C3)c12
IC50 [1]: 0.0003 µM
MIC (Escherichia coli [2]): 0.06 µg/mL (≈ 0.134 µM)
MIC (Staphylococcus aureus [3]): 0.002 µg/mL (≈ 0.00446 µM)

Cc1[nH]c(C(=O)Nc2ccc(-n3nn[nH]c3=O)cc2)c(Cl)c1Cl
inhibition at 50 µM (Pseudomonas aeruginosa): -3%
inhibition at 50 µM (Escherichia coli [4]): 100%
MIC (Staphylococcus aureus [5]): 50 µM (≈ 17.7 µg/mL)
inhibition at 50 µM (Enterococcus faecalis [6]): 99%
inhibition at 50 µM (Escherichia coli [7]): -1%
inhibition at 50 µM (Klebsiella pneumoniae [8]): -2%
inhibition at 50 µM (Escherichia coli [9]): 3%
MIC (Escherichia coli [10]): 3.13 µM (≈ 1.11 µg/mL)
MIC (Enterococcus faecalis [11]): 12.5 µM (≈ 4.41 µg/mL)
inhibition at 50 µM (Acinetobacter baumannii [12]): 1%
IC50 (DNA gyrase [13]): 0.077 µM
inhibition at 50 µM (Klebsiella aerogenes [14]): -2%
inhibition at 50 µM (Staphylococcus aureus [15]): 99%
Activity [16]: 94%
inhibition at 50 µM (Enterococcus faecium): 53%
Activity [17]: 85%
Activity [18]: 47%

O=C(O)c1cn(C2CC2)c2cc(N3CCNCC3)c(F)cc2c1=O [CIPROFLOXACIN]
MIC (Escherichia coli [19]): > 32 µM
MIC (Klebsiella aerogenes [20]): 0.113 µM (≈ 0.0374 µg/mL)
MIC (Acinetobacter baumannii [21]): 3.62 µM (≈ 1.2 µg/mL)
MIC (Escherichia coli [22]): 0.01 µM
MIC (Klebsiella pneumoniae [23]): 0.05 µM (≈ 0.0166 µg/mL)
MIC (Escherichia coli [24]): 0.19 µM
MIC (Escherichia coli [25]): 0.01 µM
MIC (Escherichia coli [26]): 8 µM

CCNC(=O)Nc1nc2cc(-c3cnc(N4CCC(C)(C(=O)O)CC4)nc3)cc(-c3ccccn3)c2s1
IC50 [27]: 0.046 µM
MIC (Enterococcus faecalis [28]): 0.03 µg/mL (≈ 0.058 µM)
IC50 (DNA gyrase [29]): 0.0041 µM
